In BindingDB's records for doi:10.7270/Q2Q52N1X (Vanderbilt Screening Center for GPCRs, Ion Channels and …, 2009):

Molecular target: T1, Solute carrier family 12 member 5 (Homo sapiens, UniProt Q9H2X9)
T1 sequence (Q9H2X9 whole entry): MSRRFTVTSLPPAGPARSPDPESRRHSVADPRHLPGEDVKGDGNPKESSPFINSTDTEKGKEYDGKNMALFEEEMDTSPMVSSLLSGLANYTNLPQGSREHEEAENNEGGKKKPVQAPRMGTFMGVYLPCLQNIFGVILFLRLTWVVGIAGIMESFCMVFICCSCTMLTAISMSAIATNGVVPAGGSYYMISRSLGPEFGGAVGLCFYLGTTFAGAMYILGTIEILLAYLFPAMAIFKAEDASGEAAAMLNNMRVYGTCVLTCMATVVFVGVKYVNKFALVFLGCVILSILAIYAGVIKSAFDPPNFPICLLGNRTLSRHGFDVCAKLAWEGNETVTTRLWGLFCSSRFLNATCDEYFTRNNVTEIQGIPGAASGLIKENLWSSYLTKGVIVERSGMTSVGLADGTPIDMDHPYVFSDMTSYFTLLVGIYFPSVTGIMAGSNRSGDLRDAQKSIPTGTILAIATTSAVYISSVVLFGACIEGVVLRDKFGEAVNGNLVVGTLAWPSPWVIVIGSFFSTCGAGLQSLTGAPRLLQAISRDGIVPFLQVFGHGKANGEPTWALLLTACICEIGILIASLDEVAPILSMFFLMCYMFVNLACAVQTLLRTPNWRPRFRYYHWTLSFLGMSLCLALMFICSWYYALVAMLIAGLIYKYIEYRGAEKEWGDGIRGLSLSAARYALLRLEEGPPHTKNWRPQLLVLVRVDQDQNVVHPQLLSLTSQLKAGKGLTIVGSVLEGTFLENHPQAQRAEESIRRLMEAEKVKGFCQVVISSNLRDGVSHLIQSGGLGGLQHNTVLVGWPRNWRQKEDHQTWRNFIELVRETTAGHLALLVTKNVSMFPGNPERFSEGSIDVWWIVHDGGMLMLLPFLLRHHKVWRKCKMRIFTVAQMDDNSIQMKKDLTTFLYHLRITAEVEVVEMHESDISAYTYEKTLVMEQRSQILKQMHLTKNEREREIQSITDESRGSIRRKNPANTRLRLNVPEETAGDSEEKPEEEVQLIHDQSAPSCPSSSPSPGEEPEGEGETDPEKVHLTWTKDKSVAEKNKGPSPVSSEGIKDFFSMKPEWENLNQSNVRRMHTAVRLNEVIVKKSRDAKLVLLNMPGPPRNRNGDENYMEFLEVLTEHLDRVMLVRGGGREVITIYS
Test: KCC2 modulator potency by thallium flux, dose response, cell-based, HEK293 KCC2, FluoZin-2 fluorescence (AID 1736)
Conditions: not given

SMILES | EC50 [µM]
CCCn1c(N)c(C(=O)CSc2nnc(Cc3ccccc3)o2)c(=O)n(C)c1=O [6-amino-3-methyl-5-[1-oxo-2-[[5-(phenylmethyl)-1,3,4-oxadiazol-2-yl]thio]ethyl]-1-propylpyrimidine-2,4-dione] | 0.00011
O=c1[nH]c2ccc(S(=O)(=O)N3CCN(c4ccccc4F)CC3)cc2s1 [6-{[4-(2-fluorophenyl)piperazin-1-yl]sulfonyl}-1,3-benzothiazol-2(3H)-one] | 8.21
CCc1ccc(Nc2nnc(SCc3cc(=O)n4ccsc4n3)s2)cc1 [7-[[5-(4-ethylanilino)-1,3,4-thiadiazol-2-yl]sulfanylmethyl]-[1,3]thiazolo[3,2-a]pyrimidin-5-one] | 0.281
O=c1c(-c2cnn(-c3ccccc3)c2)coc2cc(O)ccc12 [7-hydroxy-3-(1-phenyl-1H-pyrazol-4-yl)-4H-chromen-4-one] | 20.1
O=C(C1CCN(c2nc3ccc(Br)cc3s2)CC1)N1CCC2(CC1)OCCO2 [8-{[1-(6-bromo-1,3-benzothiazol-2-yl)piperidin-4-yl]carbonyl}-1,4-dioxa-8-azaspiro[4.5]decane] | 7.02
c1ccc(-n2cnc3cc(NCc4ccncc4)ccc32)cc1 [(1-phenylbenzimidazol-5-yl)-(4-pyridylmethyl)amine] | 5.54
COc1ccc(NC(=S)NC(N)=Nc2nc(C)c3ccccc3n2)cc1 [(1E)-1-[amino-[(4-methyl-2-quinazolinyl)amino]methylidene]-3-(4-methoxyphenyl)thiourea] | 70.5
COc1cc(C(=S)N2CCOCC2)cc(OC)c1OC(=O)Cc1ccc(F)cc1 [(2,6-dimethoxy-4-morpholin-4-ylcarbothioyl-phenyl) 2-(4-fluorophenyl)ethanoate] | 3.98
COc1cc(C(=S)N2CCOCC2)cc(OC)c1OC(=O)Cc1ccccc1 [(2,6-dimethoxy-4-morpholin-4-ylcarbothioyl-phenyl) 2-phenylethanoate] | 1.16
c1ccc(-c2csc(N=NCc3ccco3)n2)cc1 [(2-furfurylideneamino)-(4-phenylthiazol-2-yl)amine] | 65
COc1cc(C(=S)N2CCOCC2)ccc1OC(=O)Cc1ccc(F)cc1 [(2-methoxy-4-morpholin-4-ylcarbothioyl-phenyl) 2-(4-fluorophenyl)ethanoate] | 137
CC1Cc2ccccc2N1C(=O)c1ccc(N2CCCCC2)c([N+](=O)[O-])c1 (stereo not given) [(2-methyl-2,3-dihydroindol-1-yl)-(3-nitro-4-piperidin-1-yl-phenyl)methanone] | 1.59
CC1Cc2ccccc2N1C(=O)c1ccc(N2CCCC2)c([N+](=O)[O-])c1 (stereo not given) [(2-methyl-2,3-dihydroindol-1-yl)-(3-nitro-4-pyrrolidin-1-yl-phenyl)methanone] | 0.361
COC(=O)[C@@H](NC(=O)O[C@@H]1C(=O)c2ccc(OC)cc2O[C@H]1c1cccc(C(F)(F)F)c1)C(C)C [(2S)-2-[[(2S,3S)-4-keto-7-methoxy-2-[3-(trifluoromethyl)phenyl]chroman-3-yl]oxycarbonylamino]-3-methyl-butyric acid methyl ester] | 4.12
N#CC(C(=O)c1cccc(F)c1)c1nc2ccccc2s1 (stereo not given) [(2Z)-2-(3H-1,3-benzothiazol-2-ylidene)-3-(3-fluorophenyl)-3-keto-propionitrile] | 9.66
N#CC(C(=O)COc1ccccc1)c1nc2ccccc2s1 (stereo not given) [(2Z)-2-(3H-1,3-benzothiazol-2-ylidene)-3-keto-4-phenoxy-butyronitrile] | 6.56

SMILES | EC50 [µM]
COc1ccc(C(=O)N2CCCC(c3ccccc3)C2)cc1 (stereo not given) [(4-methoxyphenyl)-(3-phenyl-1-piperidinyl)methanone] | 110
O=C(c1ccc(-c2ccccc2)cc1)C1CCCN(Cc2ccncc2)C1 (stereo not given) [(4-phenylphenyl)-[1-(4-pyridylmethyl)-3-piperidyl]methanone] | 7.52
c1ccc(-c2csc(N=NCc3cccnc3)n2)cc1 [(4-phenylthiazol-2-yl)-(3-pyridylmethyleneamino)amine] | 35.8
CCOc1[nH]n(-c2ccccc2)c(=O)c1C=Nc1ccc(F)cc1F [(4E)-4-[[[2,4-bis(fluoranyl)phenyl]amino]methylidene]-5-ethoxy-2-phenyl-pyrazol-3-one] | 0.0323
CCOC(=O)c1c(C)[nH]c(N=Nc2ccccc2)c1C [(5Z)-2,4-dimethyl-5-(phenylhydrazinylidene)-3-pyrrolecarboxylic acid ethyl ester] | 6.54
CN1C(=O)/C(=C/c2ccccc2OCc2ccccc2)NC1=S [(5Z)-3-methyl-5-[(2-phenylmethoxyphenyl)methylidene]-2-sulfanylidene-4-imidazolidinone] | 7.64
Oc1ccccc1CN=Nc1nc2ccccc2o1 [(6E)-6-[(1,3-benzoxazol-2-ylhydrazo)methylidene]-1-cyclohexa-2,4-dienone] | 3040
CCCCCN1C/C=C\C(c2ccc(OC)cc2)N(Cc2ccc(F)cc2)C(=O)C1 (stereo not given) [(6Z)-1-amyl-4-(4-fluorobenzyl)-5-(4-methoxyphenyl)-5,8-dihydro-2H-1,4-diazocin-3-one] | 7.86
O=C(/C=C/c1ccco1)N1CCC(Cc2ccccc2)CC1 [(E)-1-(4-benzylpiperidin-1-yl)-3-(furan-2-yl)prop-2-en-1-one] | 2.93
CC(C)CCNC(=O)COC(=O)/C=C/c1ccc2ccccc2n1 [(E)-3-(2-quinolinyl)-2-propenoic acid [2-(3-methylbutylamino)-2-oxoethyl] ester] | 2.75
COc1ccc(-c2nnc(S/C(=C/c3ccc(Cl)cc3)C(=O)O)o2)cc1 [(E)-3-(4-chlorophenyl)-2-[[5-(4-methoxyphenyl)-1,3,4-oxadiazol-2-yl]sulfanyl]prop-2-enoic acid] | 0.489
O=C(O)/C=C/c1cn(Cc2ccccc2Cl)nc1-c1ccccc1 [(E)-3-[1-(2-chlorobenzyl)-3-phenyl-pyrazol-4-yl]acrylic acid] | 2.04
O=C(O)CC/C(=C\c1ccc(N2CCCC2)c([N+](=O)[O-])c1)c1nc2ccccc2s1 [(E)-4-(1,3-benzothiazol-2-yl)-5-(3-nitro-4-pyrrolidin-1-yl-phenyl)pent-4-enoic acid] | 29.4
O=C(O)CC/C(=C\c1ccc(N2CCOCC2)c([N+](=O)[O-])c1)c1nc2ccccc2s1 [(E)-4-(1,3-benzothiazol-2-yl)-5-(4-morpholin-4-yl-3-nitro-phenyl)pent-4-enoic acid] | 82100
COc1ccccc1N1CCN(C(=S)NC(=O)/C=C/c2ccccc2)CC1 [(E)-N-[4-(2-Methoxy-phenyl)-piperazine-1-carbothioyl]-3-phenyl-acrylamide] | 109
O=C(CNC(=O)/C(=C\c1ccc(Br)cc1)NC(=O)c1ccccc1)OCc1ccccc1 [(phenylmethyl) 2-[[(E)-2-benzamido-3-(4-bromophenyl)prop-2-enoyl]amino]ethanoate] | 1.2

Same assay, conditions: inactive by the depositor's call

SMILES | EC50 [µM]
O=[N+]([O-])c1ccc(NC2CCN(Cc3ccccc3)CC2)c([N+](=O)[O-])c1 [(1-benzyl-4-piperidyl)-(2,4-dinitrophenyl)amine] | 5.49
COc1ccc(/C=C2\CCc3ccccc3C2=O)cc1CN1CCOCC1 [(2E)-2-[4-methoxy-3-(morpholinomethyl)benzylidene]tetralin-1-one] | 219
CN1C(=CC(=O)C2CCC2)Sc2ccccc21 [(2Z)-1-cyclobutyl-2-(3-methyl-1,3-benzothiazol-2-ylidene)ethanone] | 170
